Each structure is given as a SMILES string.

For 35 molecules, IC50 results are on record in patent US9458110B2, “Phenylpyrazole derivatives as potent ROCK1 and ROCK2 inhibitors” (BRISTOL-MYERS SQUIBB COMPANY, priority 2013, dated 2016).

Experiment [1] has as its target ROCK2 (Homo sapiens (Human), UniProt O75116). Description: ROCK assay (Caliper LABCHIP peptide phosphorylation), ROCK2.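 Also: reaction stopped with EDTA, then phosphorylated and unphosphorylated peptide resolved by microfluidic electrophoresis, kinase inhibition computed at each compound concentration in dose-response series, DMSO under 2%.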 The experiment is classed as biochemical. The conditions noted are these: 5 μM ATP, 1.5 μM peptide substrate.
Experiment [2] addresses ROCK1 (Homo sapiens (Human), UniProt Q13464). Description: ROCK assay (Caliper LABCHIP peptide phosphorylation), ROCK1.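 Also: Read-out is separation of phosphorylated from unphosphorylated peptide, with kinase activity inhibition computed at every concentration of a dose-response series.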 In kind it is biochemical. The conditions noted are these: 5 μM ATP, 1.5 μM peptide substrate.

Sequence of ROCK2 (O75116 whole entry, species assumed): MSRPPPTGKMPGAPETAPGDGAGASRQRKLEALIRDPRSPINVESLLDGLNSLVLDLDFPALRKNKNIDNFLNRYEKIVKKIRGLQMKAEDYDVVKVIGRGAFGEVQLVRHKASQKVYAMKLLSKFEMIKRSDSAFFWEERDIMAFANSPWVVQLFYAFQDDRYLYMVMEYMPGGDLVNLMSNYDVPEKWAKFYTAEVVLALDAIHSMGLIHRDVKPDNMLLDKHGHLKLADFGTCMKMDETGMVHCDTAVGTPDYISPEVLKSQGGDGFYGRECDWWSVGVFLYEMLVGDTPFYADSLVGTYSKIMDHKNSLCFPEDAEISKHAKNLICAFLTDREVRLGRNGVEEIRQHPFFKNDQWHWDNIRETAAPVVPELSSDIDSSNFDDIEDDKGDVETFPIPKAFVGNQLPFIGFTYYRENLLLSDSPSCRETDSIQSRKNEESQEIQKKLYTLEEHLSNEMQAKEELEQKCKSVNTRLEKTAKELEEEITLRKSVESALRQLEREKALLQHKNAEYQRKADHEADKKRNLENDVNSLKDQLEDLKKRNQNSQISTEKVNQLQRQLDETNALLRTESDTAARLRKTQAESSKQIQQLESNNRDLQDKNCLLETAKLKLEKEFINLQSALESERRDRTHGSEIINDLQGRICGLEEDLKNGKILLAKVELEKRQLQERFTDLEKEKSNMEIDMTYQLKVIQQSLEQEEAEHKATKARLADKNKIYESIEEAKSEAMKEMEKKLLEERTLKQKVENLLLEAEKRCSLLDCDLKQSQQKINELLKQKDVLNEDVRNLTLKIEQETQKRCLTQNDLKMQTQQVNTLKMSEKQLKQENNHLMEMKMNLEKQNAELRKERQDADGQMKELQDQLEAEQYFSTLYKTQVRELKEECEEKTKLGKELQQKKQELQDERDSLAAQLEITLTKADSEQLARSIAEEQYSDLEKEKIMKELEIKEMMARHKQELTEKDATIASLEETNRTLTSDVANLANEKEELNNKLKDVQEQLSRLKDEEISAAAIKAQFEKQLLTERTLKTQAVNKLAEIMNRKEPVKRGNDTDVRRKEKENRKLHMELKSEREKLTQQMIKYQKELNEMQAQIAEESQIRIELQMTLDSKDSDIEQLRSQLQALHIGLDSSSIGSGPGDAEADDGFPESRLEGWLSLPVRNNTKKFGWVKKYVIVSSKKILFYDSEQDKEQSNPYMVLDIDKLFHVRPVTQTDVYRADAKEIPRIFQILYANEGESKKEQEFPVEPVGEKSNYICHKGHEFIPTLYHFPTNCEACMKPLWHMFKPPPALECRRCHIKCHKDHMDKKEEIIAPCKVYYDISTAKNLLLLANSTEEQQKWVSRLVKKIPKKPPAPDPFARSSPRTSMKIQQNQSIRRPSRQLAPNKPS
Sequence of ROCK1 (Q13464 whole entry, species assumed): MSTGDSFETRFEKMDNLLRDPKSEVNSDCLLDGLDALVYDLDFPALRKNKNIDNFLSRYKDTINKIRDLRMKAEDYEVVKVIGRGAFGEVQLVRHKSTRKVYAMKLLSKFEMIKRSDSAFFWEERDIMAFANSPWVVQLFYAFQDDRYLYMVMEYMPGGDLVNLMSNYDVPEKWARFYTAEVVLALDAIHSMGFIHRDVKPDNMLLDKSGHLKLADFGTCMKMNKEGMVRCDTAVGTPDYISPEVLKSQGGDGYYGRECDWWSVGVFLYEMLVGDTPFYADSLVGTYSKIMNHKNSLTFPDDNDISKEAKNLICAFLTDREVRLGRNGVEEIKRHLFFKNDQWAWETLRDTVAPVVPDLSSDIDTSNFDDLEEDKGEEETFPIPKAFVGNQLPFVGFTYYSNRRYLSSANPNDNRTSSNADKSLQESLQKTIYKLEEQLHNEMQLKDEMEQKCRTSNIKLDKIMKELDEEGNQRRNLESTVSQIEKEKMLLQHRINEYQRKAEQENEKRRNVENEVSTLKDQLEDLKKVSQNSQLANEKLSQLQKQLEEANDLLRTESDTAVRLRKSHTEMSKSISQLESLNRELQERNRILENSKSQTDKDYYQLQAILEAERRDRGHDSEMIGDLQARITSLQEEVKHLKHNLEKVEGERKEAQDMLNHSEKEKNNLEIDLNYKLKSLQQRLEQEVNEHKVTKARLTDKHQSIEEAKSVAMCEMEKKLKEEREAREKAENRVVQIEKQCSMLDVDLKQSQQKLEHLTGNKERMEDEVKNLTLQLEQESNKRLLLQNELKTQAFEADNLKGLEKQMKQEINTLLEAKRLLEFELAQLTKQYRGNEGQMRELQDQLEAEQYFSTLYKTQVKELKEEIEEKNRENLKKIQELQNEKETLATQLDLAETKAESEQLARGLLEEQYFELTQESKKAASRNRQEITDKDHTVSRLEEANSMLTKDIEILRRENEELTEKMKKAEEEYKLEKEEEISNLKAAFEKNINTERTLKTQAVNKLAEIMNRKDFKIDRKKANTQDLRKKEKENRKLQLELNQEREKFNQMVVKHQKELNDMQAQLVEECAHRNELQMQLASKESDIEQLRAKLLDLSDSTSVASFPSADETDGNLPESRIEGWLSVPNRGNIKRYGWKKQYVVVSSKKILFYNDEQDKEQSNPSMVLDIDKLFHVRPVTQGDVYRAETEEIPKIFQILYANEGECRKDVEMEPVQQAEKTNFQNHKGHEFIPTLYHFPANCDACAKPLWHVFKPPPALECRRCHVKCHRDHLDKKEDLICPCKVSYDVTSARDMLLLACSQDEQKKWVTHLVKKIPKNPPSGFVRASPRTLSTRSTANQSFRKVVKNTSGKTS

In the case of `Cc1cc(C(=O)NCc2c(F)cccc2Cl)ccc1-c1cn[nH]c1` [Example 151, N-[(2-chloro-6-fluorophenyl)methyl]-3 methyl-4-(1H-pyrazol-4-yl)benzamide], the IC50 in experiment [1] came to 9.83 nM; in experiment [2] it was 19.7 nM.

For the molecule `COc1cc(C(=O)NCc2c(F)cc(F)cc2F)ccc1-c1cn[nH]c1` [Example 89, 3-methoxy-4-(1H-pyrazol-4-yl)-N-[(2,4,6-trifluorophenyl)methyl] benzamide], the values for the IC50 in experiment [1] and in experiment [2] were 11.1 nM and 21.9 nM, respectively. The like results for `COC(=O)c1n[nH]cc1-c1ccc(C(=O)N[C@H](C)c2cccc(OC)c2)c(OC)c1` [Example 302, (R)-Methyl 4-(3-methoxy-4-((1-(3-methoxyphenyl)ethyl)carbamoyl)phenyl)-1H-pyrazole-3-carboxylate] were, in that order, 69.6 nM and 70.9 nM. Turning to `COc1cc(C(=O)N[C@H](C)c2ccc(F)cc2)ccc1-c1cn[nH]c1` [Example 73, (R)-N-(1-(4-fluorophenyl)ethyl)-3-methoxy-4-(1H-pyrazol-4-yl)benzamide], the IC50 stood at 2.69 nM in experiment [1] and 9.03 nM in experiment [2].

For `COc1cc(C(=O)N[C@@H](Cc2ccccc2)[C@H](O)CO)ccc1-c1cn[nH]c1` [Example 216, N-[(2S,3S)-3,4-dihydroxy-1-phenylbutan-2-yl]-3-methoxy-4-(1H-pyrazol-4-yl)benzamide], the IC50 came to 11 nM in experiment [1] and 51.5 nM in experiment [2]. Regarding `COc1cccc([C@@H](C)NC(=O)c2ccc(-c3c[nH]nc3C#N)cc2OC)c1` [Example 303, 4-(3-Cyano-1H-pyrazol-4-yl)-2-methoxy-N-[(1R)-1-(3-methoxyphenyl)ethyl]benzamide], the IC50 in experiment [1] worked out at 21 nM; in experiment [2], 30.6 nM. For `CCOc1cc(-c2cn[nH]c2)ccc1C(=O)N[C@H](C)c1cccc(OC)c1` [Example 313, 2-ethoxy-N-[(1R)-1-(3-methoxyphenyl)ethyl]-4-(1H-pyrazol-4-yl)benzamide], in that order: 1.6 nM and 21.1 nM. For `CC(=O)c1cc(C(=O)N[C@H](C)c2ccccc2)ccc1-c1cn[nH]c1` [Example 294, (R)-3-Acetyl-N-(1-phenylethyl)-4-(1H-pyrazol-4-yl)benzamide], in that order: 613 nM and above 2000 nM. As for `Nc1cc(-c2cn[nH]c2)ccc1C(=O)NCCCc1ccccc1` [Example 220, 2-amino-N-(3-phenylpropyl)-4-(1H-pyrazol-4-yl)benzamide], the IC50 was 201 nM in experiment [1] and 321 nM in experiment [2]. For `C[C@@H](NC(=O)c1cc(F)c(-c2cn[nH]c2)cc1F)c1ccccc1` [Example 186, 2,5-difluoro-N-[(1R)-1-phenylethyl]-4-(1H-pyrazol-4-yl)benzamide], in that order: 190 nM and 472 nM. Turning to `COc1cc(-c2cn[nH]c2)ccc1C(=O)NC(c1ccccc1F)C(C)(C)O` (stereo not shown) [Example 212, N-[1-(2-fluorophenyl)-2-hydroxy-2-methylpropyl]-2-methoxy-4-(1H-pyrazol-4-yl)benzamide], the concentration for half-maximal inhibition (IC50) in experiment [1] stood at 7.32 nM; in experiment [2], 37.3 nM. Turning to `COc1cc(C(=O)NCc2cccc(C(=O)Nc3nc4c(s3)CNCC4)c2)ccc1-c1cn[nH]c1` [Example 246, 3-methoxy-4-(1H-pyrazol-4-yl)-N-{[3-({4H,5H,6H, 7H-[1,3]thiazolo[5,4-c]pyridin-2-yl}carbamoyl)phenyl]methyl} benzamide], the IC50 in experiment [1] turned out to be 0.23 nM; in experiment [2] it was 0.26 nM. Turning to `COc1cc(C(=O)NCc2cc(F)ccc2Cl)ccc1-c1cn[nH]c1` [Example 82, N-(2-chloro-5-fluorobenzyl)-3-methoxy-4-(1H-pyrazol-4-yl)benzamide], the values for the IC50 in experiment [1] and in experiment [2] were 4.39 nM and 9.89 nM, respectively.

As to `COc1cc(C(=O)NCCc2cccc(C(F)(F)F)c2)ccc1-c1cn[nH]c1` [Example 120, 3-methoxy-4-(1H-pyrazol-4-yl)-N-{2-[3-(trifluoro-methyl)phenyl]ethyl} benzamide], the values for the IC50 in experiment [1] and in experiment [2] were 52 nM and 94.6 nM, respectively. On to `COc1cc(C(=O)NCc2nc3ccccc3s2)ccc1-c1cn[nH]c1` [Example 16, N-(benzo[d]thiazol-2-ylmethyl)-3-methoxy-4-(1H-pyrazol-4-yl)benzamide], for which the IC50 was determined as 438 nM in experiment [1] and 556 nM in experiment [2]. As to `COc1cc(-c2cn[nH]c2)ccc1C(=O)NCc1c(F)cccc1Cl` [Example 185, N-[(2-chloro-6-fluorophenyl)methyl]-2-methoxy-4-(1H-pyrazol-4-yl)benzamide], the IC50 in experiment [1] turned out to be 6.48 nM; in experiment [2] it was 26.3 nM. The like results for `O=C(N[C@H](CO)c1c(F)cccc1F)c1ccc(-c2cn[nH]c2)c(Cl)c1` [Example 200, 3-chloro-N-[(1S)-1-(2,6-difluorophenyl)-2-hydroxyethyl]-4-(1H-pyrazol-4-yl)benzamide] were, in that order, 12.3 nM and 42.3 nM. For `N#Cc1cc(C(=O)N[C@H](CO)c2ccccc2)ccc1-c1cn[nH]c1` [Example 194, 3-cyano-N-[(1S)-2-hydroxy-1-phenylethyl]-4-(1H-pyrazol-4-yl)benzamide], in that order: 152 nM and 510 nM. Consider `COc1cccc([C@@H](C)NC(=O)c2ccc(-c3c[nH]nc3C)cc2OC)c1` [Example 305, 4-(3-Methyl-1H-pyrazol-4-yl)-2-methoxy-N-[(1R)-1-(3-methoxyphenyl)ethyl]benzamide], for which the IC50 in experiment [1] came out at 0.65 nM; in experiment [2], 2.15 nM. The like results for `O=C(N[C@H](CO)c1ccccc1)c1ccc(-c2cn[nH]c2)c(OC(F)F)c1` [Example 160, 3-(difluoro-methoxy)-N-[(1S)-2-hydroxy-1-phenylethyl]-4-(1H-pyrazol-4-yl)benzamide] were, in that order, 6.94 nM and 17.1 nM.

Regarding `CCC(O)c1cc(C(=O)N[C@H](C)c2ccccc2)ccc1-c1cn[nH]c1` (stereo partly drawn) [Example 285, 3-(1-hydroxypropyl)-N-[(1R)-1-phenylethyl]-4-(1H-pyrazol-4-yl)benzamide], the IC50 in experiment [1] is 1480 nM; in experiment [2], above 2000 nM.

`COc1cc(C(=O)NC(CNC(=O)OC(C)(C)C)c2ccccc2)ccc1-c1cn[nH]c1` (stereo not shown) [Example 11, tert-butyl (2-(3-methoxy-4-(1H-pyrazol-4-yl)benzamido)-2-phenylethyl) carbamate] returned an IC50 in experiment [2] of 108 nM. As for `COc1cc(C(=O)NCc2cccc(N(C)C(C)=O)c2)ccc1-c1cn[nH]c1` [Example 100, 3-methoxy-N-{[3-(N-methyl-acetamido)phenyl]methyl}-4-(1H-pyrazol-4-yl)benzamide], the results for the IC50 in experiment [1] and in experiment [2] were 299 nM and 4080 nM, respectively. For `COc1cccc([C@@H](C)NC(=O)c2ccc(-c3c[nH]nc3C)cc2OCCN(C)C)c1` [Example 311, 2-[2-(dimethylamino)ethoxy]-N-[(1R)-1-(3-methoxyphenyl)ethyl]-4-(3-methyl-1H-pyrazol-4-yl)benzamide], in that order: 34.8 nM and 22.3 nM. For `COc1cc(C(=O)N[C@H](CNS(C)(=O)=O)c2ccccc2)ccc1-c1cn[nH]c1` [Example 260, N-[(1S)-2-methane-sulfonamido-1-phenylethyl]-3-methoxy-4-(1H-pyrazol-4-yl)benzamide], in that order: 1.9 nM and 6.62 nM. For `COc1cc(C(=O)NC(C)c2ccc3c(c2)OCCO3)ccc1-c1cn[nH]c1` (stereo not shown) [Example 101, N-[1-(2,3-dihydro-1,4-benzodioxin-6-yl)ethyl]-3-methoxy-4-(1H-pyrazol-4-yl)benzamide], in that order: 189 nM and 742 nM. Turning to `CCN1CCC[C@H]1CNC(=O)c1cccc(CNC(=O)c2ccc(-c3cn[nH]c3)c(OC)c2)c1` [Example 241, N-{[3-({[(2S)-1-ethylpyrrolidin-2-yl]methyl}carbamoyl)phenyl]methyl}-3-methoxy-4-(1H-pyrazol-4-yl)benzamide], the IC50 in experiment [1] is 0.85 nM; in experiment [2] it was 1.54 nM. For `COC[C@H](NC(=O)c1ccc(-c2cn[nH]c2)c(OC)c1)[C@@H](O)c1ccccc1` [Example 113, N-[(1S,2S)-1-hydroxy-3-methoxy-1-phenylpropan-2-yl]-3-methoxy-4-(1H-pyrazol-4-yl)benzamide], in that order: 330 nM and 602 nM. The like results for `COc1cc(C(=O)NCc2cccc(C#N)c2)ccc1-c1cn[nH]c1` [Example 138, N-[(3-cyanophenyl)methyl]-3-methoxy-4-(1H-pyrazol-4-yl)benzamide] were, in that order, 8.24 nM and 32.6 nM. Consider `CNC(=O)c1cccc(CNC(=O)c2ccc(-c3cn[nH]c3)c(OC)c2)c1` [Example 65, 3-Methoxy-N-(3-(methylcarbamoyl)benzyl)-4-(1H-pyrazol-4-yl)benzamide], for which inhibition in experiment [1] was half-maximal at 0.85 nM (IC50). Take `COc1ccc(F)c(C(C)NC(=O)c2ccc(-c3c[nH]nc3C)cc2OC)c1` (stereo not shown) [Example 147, N-[1-(2-fluoro-5-methoxyphenyl)ethyl]-2-methoxy-4-(3-methyl-1H-pyrazol-4-yl)benzamide]: the IC50 in experiment [1] was found to be 5.09 nM; in experiment [2], 23.5 nM. On to `COc1cc(C(=O)NC(C)Cc2ccc(F)cc2)ccc1-c1cn[nH]c1` (stereo not shown) [Example 111, N-[1-(4-fluorophenyl)propan-2-yl]-3-methoxy-4-(1H-pyrazol-4-yl)benzamide], for which the IC50 in experiment [2] worked out at 35.8 nM.

As to `C[C@@H](NC(=O)c1cc(F)c(-c2cn[nH]c2)cc1OCCN(C)C)c1ccccc1` [Example 310, 2-[2-(dimethylamino)ethoxy]-5-fluoro-N-[(1R)-1-phenylethyl]-4-(1H-pyrazol-4-yl)benzamide], the IC50 in experiment [1] came out at 675 nM.

In turn, `COC(=O)c1cccc(CNC(=O)c2ccc(-c3cn[nH]c3)c(OC)c2)c1` [Example 8, methyl 3-((3-methoxy-4-(1H-pyrazol-4-yl)benzamido)methyl)benzoate] yielded an IC50 in experiment [1] of 0.85 nM. Same read-out and setting: under `COc1cc(C(=O)NCc2cccc(O)c2)ccc1-c1cn[nH]c1` [Example 6, N-(3-hydroxybenzyl)-3-methoxy-4-(1H-pyrazol-4-yl)benzamide] stands 0.85 nM.

Broadly, the IC50 is the concentration needed to halve the response being measured. A low value points to greater potency.
